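GI50: concentration for 50% inhibition of growth. TGI denotes the concentration required for complete inhibition of growth.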
What was measured:
Assay in all cases: NCI-60 cell line screen, 384-well format
[1] = test system: HL-60(TB) leukemia
[2] = test system: MDA-MB-435 melanoma
[3] = test system: DU-145 prostate
[4] = test system: SR leukemia
[5] = test system: M14 melanoma
[6] = test system: MDA-MB-231 breast
[7] = test system: OVCAR-8 ovarian
[8] = test system: A549 NSCLC
[9] = test system: NCI-H23 lung
[10] = test system: LOX IMVI melanoma
[11] = test system: NCI-H322M lung
[12] = test system: MOLT-4 leukemia
[13] = test system: OVCAR-5 ovarian
[14] = test system: HCC-2998 colon
[15] = test system: COLO 205 colon
[16] = test system: UO-31 renal
[17] = test system: OVCAR-4 ovarian
[18] = test system: NCI-H522 lung
[19] = test system: HCT-15 colon
[20] = test system: T-47D breast
[21] = test system: MCF7 breast
[22] = test system: MALME-3M melanoma
[23] = test system: SNB-19 CNS
[24] = test system: SF-295 CNS
[25] = test system: SN12C renal
[26] = test system: HOP-62 NSCLC
[27] = test system: NCI/ADR-RES ovarian
[28] = test system: SF-268 CNS
[29] = test system: HCT-116 colon
[30] = test system: HOP-92 NSCLC
[31] = test system: NCI-H460 NSCLC
[32] = test system: 786-0 renal
[33] = test system: NCI-H226 lung
[34] = test system: SK-OV-3 ovarian
[35] = test system: SNB-75 CNS
[36] = test system: RPMI-8226 leukemia
[37] = test system: SK-MEL-5 melanoma
[38] = test system: HS 578T breast
[39] = test system: PC-3 prostate
[40] = test system: BT-549 breast
[41] = test system: IGROV1 ovarian
[42] = test system: TK-10 renal
[43] = test system: UACC-62 melanoma
[44] = test system: OVCAR-3 ovarian
[45] = test system: CAKI-1 renal
[46] = test system: ACHN renal
[47] = test system: UACC-257 melanoma
[48] = test system: EKVX NSCLC
[49] = test system: KM12 colon
[50] = test system: MDA-MB-468 breast
[51] = test system: SF-539 CNS
[52] = test system: SW-620 colon
[53] = test system: U251 glioblastoma
[54] = test system: HT29 colon
[55] = test system: SK-MEL-28 melanoma
[56] = test system: A498 renal
[57] = test system: RXF 393 renal

`CC(C)C[C@H](NC(=O)[C@H](CCc1ccccc1)NC(=O)CN1CCOCC1)C(=O)N[C@@H](Cc1ccccc1)C(=O)N[C@@H](CC(C)C)C(=O)[C@@]1(C)CO1` was tested, and the GI50 [1] was less than 10 nM, the TGI [1] was less than 10 nM and the GI50 [2] was less than 10 nM. The TGI [2] was 21.5 nM, the GI50 [3] was less than 10 nM and the TGI [3] was 19.5 nM. It also gave a GI50 [4] of less than 10 nM, a TGI [4] of less than 10 nM and a GI50 [5] of less than 10 nM. For the same compound, the TGI [5] was 19.1 nM, the GI50 [6] was less than 10 nM and the TGI [6] was less than 10 nM. It also gave a GI50 [7] of 14.6 nM, a TGI [7] of 28 nM and a GI50 [8] of less than 10 nM. For the same compound, the TGI [8] was 25.7 nM, the GI50 [9] was less than 10 nM and the TGI [9] was less than 10 nM. It also gave a GI50 [10] of less than 10 nM, a TGI [10] of less than 10 nM and a GI50 [11] of 15.5 nM. The TGI [11] was 33.7 nM, the GI50 [12] was less than 10 nM and the TGI [12] was less than 10 nM. For the same compound, the GI50 [13] was 17.3 nM, the TGI [13] was 45.3 nM and the GI50 [14] was less than 10 nM. It also gave a TGI [14] of 14 nM, a GI50 [15] of 28.3 nM and a TGI [15] of 105 nM. For the same compound, the GI50 [16] was 35.9 nM, the TGI [16] was 110 nM and the GI50 [17] was less than 10 nM. It also gave a TGI [17] of 18.3 nM, a GI50 [18] of less than 10 nM and a TGI [18] of 10.8 nM. For the same compound, the GI50 [19] was 23.9 nM, the TGI [19] was 86.9 nM and the GI50 [20] was less than 10 nM. It also gave a TGI [20] of 18 nM, a GI50 [21] of less than 10 nM and a TGI [21] of 12.4 nM. It also gave a GI50 [22] of less than 10 nM, a TGI [22] of 18.8 nM and a GI50 [23] of 12.3 nM. It also gave a TGI [23] of 38.8 nM, a GI50 [24] of 13.2 nM and a TGI [24] of 26.1 nM. For the same compound, the GI50 [25] was 15 nM, the TGI [25] was 29.1 nM and the GI50 [26] was less than 10 nM. For the same compound, the TGI [26] was less than 10 nM, the GI50 [27] was 422 nM and the TGI [27] was 1610 nM. For the same compound, the GI50 [28] was less than 10 nM, the TGI [28] was less than 10 nM and the GI50 [29] was less than 10 nM. The TGI [29] was less than 10 nM, the GI50 [30] was 11.6 nM and the TGI [30] was 24.3 nM. It also gave a GI50 [31] of 18.2 nM, a TGI [31] of 33.6 nM and a GI50 [32] of less than 10 nM. It also gave a TGI [32] of 16.5 nM, a GI50 [33] of less than 10 nM and a TGI [33] of less than 10 nM. It also gave a GI50 [34] of 14.1 nM, a TGI [34] of 33.6 nM and a GI50 [35] of 15.4 nM. The TGI [35] was 30.6 nM, the GI50 [36] was less than 10 nM and the TGI [36] was less than 10 nM. It also gave a GI50 [37] of less than 10 nM, a TGI [37] of 21.6 nM and a GI50 [38] of less than 10 nM. It also gave a TGI [38] of less than 10 nM, a GI50 [39] of 10.5 nM and a TGI [39] of 23.3 nM. It also gave a GI50 [40] of less than 10 nM, a TGI [40] of less than 10 nM and a GI50 [41] of 15 nM. It also gave a TGI [41] of 30.1 nM, a GI50 [42] of 21.2 nM and a TGI [42] of 54 nM. The GI50 [43] was less than 10 nM, the TGI [43] was 19.3 nM and the GI50 [44] was less than 10 nM. The TGI [44] was less than 10 nM, the GI50 [45] was 17.6 nM and the TGI [45] was 53.9 nM. The GI50 [46] was 33.2 nM, the TGI [46] was 109 nM and the GI50 [47] was 14.6 nM. It also gave a TGI [47] of 28.8 nM, a GI50 [48] of 13.1 nM and a TGI [48] of 36.2 nM. The GI50 [49] was less than 10 nM, the TGI [49] was less than 10 nM and the GI50 [50] was less than 10 nM. The TGI [50] was 16.1 nM, the GI50 [51] was less than 10 nM and the TGI [51] was less than 10 nM. For the same compound, the GI50 [52] was less than 10 nM, the TGI [52] was less than 10 nM and the GI50 [53] was less than 10 nM. For the same compound, the TGI [53] was 21.2 nM, the GI50 [54] was less than 10 nM and the TGI [54] was less than 10 nM. The GI50 [55] was 17.2 nM, the TGI [55] was 36.8 nM and the GI50 [56] was less than 10 nM. The TGI [56] was 24.5 nM, the GI50 [57] was less than 10 nM and the TGI [57] was less than 10 nM.

— PubChem BioAssay (NCI)
